# Reference: patent US20240398757A1 (COCRYSTAL PHARMA, INC., priority 2022, published 2024)
# Molecular target: T1, SARS2 protease (Severe acute respiratory syndrome coronavirus 2, UniProt P0DTD1)
# T1 construct: SARS2 protease was added to a final concentration of 30 nM
# Test: SARS-CoV-2 protease inhibition assay (SARS2 FRET protease assay)
# Format: biochemical
# Conditions: IC50 (μM), SARS2 protease 30 nM, peptide substrate 1.3 μM, 120 minutes at 37° C., compounds 20 μM to 0.075 nM
row,Structure (SMILES),IC50 [µM]
1,CC(C)C[C@H](NC(=O)OC(c1ccccc1)C(F)(F)c1cccc(C2CCC2)c1)C(=O)N[C@@H](C[C@@H]1CCNC1=O)C(=O)C(=O)NC1CC1 (some centres unmarked) [Compound A315],0.051
2,"CCCC[C@H](NC(=O)O[C@H](c1ccccc1)C(F)(F)c1cccc(Cl)c1)C(=O)N[C@@H](C[C@@H]1CCNC1=O)C(=O)C(N)=O [Compound A248, (R)-2-(3-chlorophenyl)-2,2-difluoro-1-phenylethyl ((S)-1-(((S)-4-amino-3,4-dioxo-1-((S)-2-oxopyrrolidin-3-yl)butan-2-yl)amino)-1-oxohexan-2-yl)carbamate]",0.0004
3,O=C(N[C@@H](CC1CC1)C(=O)N[C@@H](C[C@@H]1CCNC1=O)C(=O)C(=O)NC1CC1)OC(c1ccccc1)C(F)(F)c1cccc(Cl)c1 (some centres unmarked) [Compound A94],0.0123
4,CCCC[C@H](NC(=O)OC(c1ccccc1)C(F)(F)c1cccc(Cl)c1)C(=O)N[C@@H](C[C@@H]1CCNC1=O)C(=O)C(=O)NCC (some centres unmarked) [Compound A138],0.028
5,CCCC[C@H](NC(=O)O[C@@H](c1ccccc1)C(F)(F)c1cccc(Cl)c1)C(=O)N[C@@H](C[C@@H]1CCNC1=O)C(=O)C(=O)NC1CC1 [Compound A115],0.805
6,"CC(C)C[C@H](NC(=O)OC(C(C)C)C(F)(F)c1cccc(-c2ccccc2)c1)C(=O)N[C@H](C=O)C[C@@H]1CCNC1=O (stereo partly drawn) [Compound A222, 1-([1,1′-Biphenyl]-3-yl)-1,1-difluoro-3-methylbutan-2-yl ((S)-4-methyl-1-oxo-1-(((S)-1-oxo-3-((S)-2-oxopyrrolidin-3-yl)propan-2-yl)amino)pentan-2-yl)carbamate]",0.003
7,CCNC(=O)C(=O)[C@H](C[C@H]1CCNC1=O)NC(=O)[C@H](CC1CCCCC1)NC(=O)OC(c1ccccc1)C(F)(F)c1cccc(Cl)c1 (some centres unmarked) [Compound A207],0.764
8,CCCC[C@H](NC(=O)O[C@H](c1ccccc1)C(F)(F)c1cccc(Cl)c1)C(=O)N[C@@H](C[C@@H]1CCNC1=O)C(O)S(=O)(=O)O (some centres unmarked) [Compound A111],0.0028
9,CC(C)C[C@H](NC(=O)O[C@@H](c1ccccc1)C(F)(F)c1cccc(C2CC2)c1)C(=O)N[C@@H](C[C@@H]1CCNC1=O)C(=O)C(=O)NC1CC1 [Compound A288],0.26
10,CCCC[C@H](NC(=O)O[C@H](c1ccccc1)C(C)(C)c1cccc(F)c1)C(=O)N[C@@H](C[C@@H]1CCNC1=O)C(=O)C(=O)NCC [Compound A216],0.006
11,CCCC[C@H](NC(=O)OC(c1ccccc1)C(F)(F)c1cccc(Cl)c1)C(=O)NC(CC1CC(C)(C)NC1=O)C(=O)C(=O)NC1CC1 (some centres unmarked) [Compound A73],1.39
12,CCN1CCC(NC(=O)C(=O)[C@H](C[C@@H]2CCNC2=O)NC(=O)[C@H](CC(C)C)NC(=O)OC(c2ccccc2)C(CC)(CC)c2cccc(Cl)c2)CC1 (some centres unmarked) [Compound A17],30.3
13,CCCC[C@H](NC(=O)OC(c1cccnc1)C(F)(F)c1cccc(Cl)c1)C(=O)N[C@@H](C[C@@H]1CCNC1=O)C(=O)C(=O)NC1CC1 (some centres unmarked) [Compound A252],0.002
14,"O=C[C@H](C[C@@H]1CCNC1=O)NC(=O)[C@H](Cc1ccccc1)NC(=O)O[C@@H](c1ccccc1)C(F)(F)c1cccc(Cl)c1 [Compound A253, (S)-2-(3-chlorophenyl)-2,2-difluoro-1-phenylethyl ((S)-1-oxo-1-(((S)-1-oxo-3-((S)-2-oxopyrrolidin-3-yl)propan-2-yl)amino)-3-phenylpropan-2-yl)carbamate]",0.002
15,CCCC[C@H](NC(=O)OC(c1ccccc1)C(C)(C)c1cccc(Cl)c1)C(=O)N[C@@H](C[C@@H]1CCNC1=O)C(=O)C(=O)NC1CC1 (some centres unmarked) [Compound A189],1.37
16,CCCC[C@H](NC(=O)OC(c1cccc(F)c1)C(F)(F)c1cccc(Cl)c1)C(=O)N[C@@H](C[C@@H]1CCNC1=O)C(=O)C(=O)NC1CC1 (some centres unmarked) [Compound A106],0.17
17,CC(C)C[C@H](NC(=O)OC(c1cccc(F)c1)C(C)(C)c1cccc(Cl)c1)C(=O)N[C@H](C=O)C[C@@H]1CCNC1=O (some centres unmarked) [Compound A11],0.0001
18,"O=C[C@H](C[C@@H]1CCNC1=O)NC(=O)[C@H](CCC(F)F)NC(=O)OC(c1ccccc1)C(F)(F)c1cccc(Cl)c1 (stereo partly drawn) [Compound A163, 2-(3-chlorophenyl)-2,2-difluoro-1-phenylethyl ((S)-5,5-difluoro-1-oxo-1-(((S)-1-oxo-3-((S)-2-oxopyrrolidin-3-yl)propan-2-yl)amino)pentan-2-yl)carbamate]",0.017
19,CC(C)C[C@H](NC(=O)OC(c1ccc(Cl)cc1)C1(c2cccc(Cl)c2)CCN(C(=O)OC(C)(C)C)CC1)C(=O)N[C@H](C=O)C[C@@H]1CCNC1=O (some centres unmarked) [Compound A85],0.46

row,Structure (SMILES),IC50 [µM]
1,CCNC(=O)C(=O)[C@H](C[C@@H]1CCNC1=O)NC(=O)[C@@H](CC1(C)CCC1)NC(=O)O[C@@H](c1ccccc1)C(F)(F)c1cccc(Cl)c1 [Compound A324],0.0003
2,"CCCC[C@H](NC(=O)OC(c1ccccc1)C(F)(F)c1cccc(F)c1)C(=O)N[C@@H](CC1CCNC1=O)C(=O)C(=O)NCC (stereo in doubt) [Compound A173, 2,2-difluoro-2-(3-fluorophenyl)-1-phenylethyl ((S)-1-(((S)-4-(ethylamino)-3,4-dioxo-1-((S)-2-oxopyrrolidin-3-yl)butan-2-yl)amino)-1-oxohexan-2-yl)carbamate]",0.0386
3,CCC[C@H](NC(=O)OC(c1ccccc1)C(F)(F)c1cccc(Cl)c1)C(=O)N[C@@H](C[C@@H]1CCNC1=O)C(=O)C(=O)NCC (some centres unmarked) [Compound A145],0.15
4,CC(C)C[C@H](NC(=O)OC(c1ccccc1)C(F)(F)c1cccc(Cl)c1)C(=O)NC(CN1CCNC1=O)C(=O)C(=O)NC1CC1 (some centres unmarked) [Compound A307],4.44
5,"O=C(N[C@@H](Cc1ccccc1)C(=O)N[C@@H](C[C@@H]1CCNC1=O)C(=O)C(=O)NC1CC1)OC(c1ccccc1)C(F)(F)c1cccc(Cl)c1 (stereo partly drawn) [Compound A241, 2-(3-chlorophenyl)-2,2-difluoro-1-phenylethyl ((S)-1-(((S)-4-(cyclopropylamino)-3,4-dioxo-1-((S)-2-oxopyrrolidin-3-yl)butan-2-yl)amino)-1-oxo-3-phenylpropan-2-yl)carbamate]",0.614
6,"CCCC[C@H](NC(=O)O[C@H](c1ccccc1)C(F)(F)c1cccc(F)c1)C(=O)N[C@@H](C[C@@H]1CCNC1=O)C(=O)C(=O)NCC [Compound A284, (R)-2,2-difluoro-2-(3-fluorophenyl)-1-phenylethyl ((S)-1-(((S)-4-(ethylamino)-3,4-dioxo-1-((S)-2-oxopyrrolidin-3-yl)butan-2-yl)amino)-1-oxohexan-2-yl)carbamate]",0.008
7,CCC[C@H](NC(=O)OC(c1ccccc1)C(F)(F)c1cccc(Cl)c1)C(=O)N[C@@H](C[C@@H]1CCNC1=O)C(=O)C(=O)NC1CC1 (some centres unmarked) [Compound A109],0.17
8,O=C[C@H](C[C@@H]1CCNC1=O)NC(=O)[C@H](CC1CCCCC1)NC(=O)OC(c1ccccc1)C(F)(F)c1cccc(Cl)c1 (some centres unmarked) [Compound A20],0.0003
9,"CCCC[C@H](NC(=O)OC(c1ccccc1)C(F)(F)c1cccc(F)c1)C(=O)N[C@H](C=O)C[C@@H]1CCNC1=O (stereo partly drawn) [Compound A77, 2,2-difluoro-2-(3-fluorophenyl)-1-phenylethyl ((S)-1-oxo-1-(((S)-1-oxo-3-((S)-2-oxopyrrolidin-3-yl)propan-2-yl)amino)hexan-2-yl)carbamate]",0.009
10,O=C(N[C@@H](CC1CCCCC1)C(=O)N[C@@H](C[C@@H]1CCNC1=O)C(=O)C(=O)NC1CC1)O[C@@H](c1ccccc1)C(F)(F)c1cccc(Cl)c1 [Compound A116],0.0289
11,"O=C[C@H](C[C@@H]1CCNC1=O)NC(=O)[C@H](CC1CCCCC1)NC(=O)OC(c1ccccc1)C(F)(F)c1cccc(F)c1 (stereo partly drawn) [Compound A67, 2,2-difluoro-2-(3-fluorophenyl)-1-phenylethyl ((S)-3-cyclohexyl-1-oxo-1-(((S)-1-oxo-3-((S)-2-oxopyrrolidin-3-yl)propan-2-yl)amino)propan-2-yl)carbamate]",0.002
12,CCOP(=O)(OCC)C(O)[C@H](C[C@@H]1CCNC1=O)NC(=O)[C@H](CC1CCCCC1)NC(=O)O[C@H](c1ccccc1)C(F)(F)c1cccc(Cl)c1 (some centres unmarked) [Compound A293],16.1
13,"CC(C)C[C@H](NC(=O)O[C@@H](C(C)C)C(F)(F)c1cccc(-c2ccccc2)c1)C(=O)N[C@@H](C[C@@H]1CCNC1=O)C(=O)C(=O)NC1CC1 [Compound A226, 1-([1,1′-biphenyl]-3-yl)-1,1-difluoro-3-methylbutan-2-yl ((S)-1-(((S)-4-(cyclopropylamino)-3,4-dioxo-1-((S)-2-oxopyrrolidin-3-yl)butan-2-yl)amino)-4-methyl-1-oxopentan-2-yl)carbamate]",0.062
14,CC(C)C[C@H](NC(=O)O[C@@H](c1ccc(F)cc1)C(C)(C)c1cccc(Cl)c1)C(=O)N[C@H](C=O)C[C@@H]1CCNC1=O [Compound A202],0.021
15,CC(C)C[C@H](NC(=O)O[C@H](c1ccc(Cl)cc1)C1(c2cccc(Cl)c2)CC1)C(=O)N[C@@H](C[C@@H]1CCNC1=O)C(=O)C(=O)NC1CC1 [Compound A60],1.91
16,CCCC[C@H](NC(=O)OC(c1ccccc1)C(C)(C)c1cccc(F)c1)C(=O)N[C@@H](C[C@@H]1CCNC1=O)C(=O)C(=O)NCC (some centres unmarked) [Compound A68],0.029
17,"CCCC[C@H](NC(=O)O[C@@H](c1ccccc1)C(F)(F)c1cccc(Cl)c1)C(=O)N[C@H](C=O)C[C@@H]1CCNC1=O [Compound A107, (S)-2-(3-chlorophenyl)-2,2-difluoro-1-phenylethyl ((S)-1-oxo-1-(((S)-1-oxo-3-((S)-2-oxopyrrolidin-3-yl)propan-2-yl)amino)hexan-2-yl)carbamate]",0.001
18,O=C(N[C@@H](CC1CCCCC1)C(=O)N[C@@H](C[C@@H]1CCNC1=O)C(=O)C(=O)NC1CC1)O[C@H](c1ccccc1)C(F)(F)c1cccc(F)c1 [Compound A237],0.003
19,"CCCC[C@H](NC(=O)OC(c1ccccc1)C(F)(F)c1cccc(Cl)c1)C(=O)N[C@H](C=O)Cc1ccc[nH]c1=O (stereo partly drawn) [Compound A292, 2-(3-chlorophenyl)-2,2-difluoro-1-phenylethyl ((S)-1-oxo-1-(((S)-1-oxo-3-(2-oxo-1,2-dihydropyridin-3-yl)propan-2-yl)amino)hexan-2-yl)carbamate]",0.159
